From paper PMC3214968 (Journal of medicinal chemistry, 2011)

How the values were obtained:
[1] = target: T1, matriptase activation (Homo sapiens, UniProt Q9Y5Y6); experiment: Cell-free in vitro matriptase activation assay; format: biochemical; settings: insoluble fractions of 184 A1N4 cell homogenates, pH 6.0
T1 sequence (Q9Y5Y6 1-855): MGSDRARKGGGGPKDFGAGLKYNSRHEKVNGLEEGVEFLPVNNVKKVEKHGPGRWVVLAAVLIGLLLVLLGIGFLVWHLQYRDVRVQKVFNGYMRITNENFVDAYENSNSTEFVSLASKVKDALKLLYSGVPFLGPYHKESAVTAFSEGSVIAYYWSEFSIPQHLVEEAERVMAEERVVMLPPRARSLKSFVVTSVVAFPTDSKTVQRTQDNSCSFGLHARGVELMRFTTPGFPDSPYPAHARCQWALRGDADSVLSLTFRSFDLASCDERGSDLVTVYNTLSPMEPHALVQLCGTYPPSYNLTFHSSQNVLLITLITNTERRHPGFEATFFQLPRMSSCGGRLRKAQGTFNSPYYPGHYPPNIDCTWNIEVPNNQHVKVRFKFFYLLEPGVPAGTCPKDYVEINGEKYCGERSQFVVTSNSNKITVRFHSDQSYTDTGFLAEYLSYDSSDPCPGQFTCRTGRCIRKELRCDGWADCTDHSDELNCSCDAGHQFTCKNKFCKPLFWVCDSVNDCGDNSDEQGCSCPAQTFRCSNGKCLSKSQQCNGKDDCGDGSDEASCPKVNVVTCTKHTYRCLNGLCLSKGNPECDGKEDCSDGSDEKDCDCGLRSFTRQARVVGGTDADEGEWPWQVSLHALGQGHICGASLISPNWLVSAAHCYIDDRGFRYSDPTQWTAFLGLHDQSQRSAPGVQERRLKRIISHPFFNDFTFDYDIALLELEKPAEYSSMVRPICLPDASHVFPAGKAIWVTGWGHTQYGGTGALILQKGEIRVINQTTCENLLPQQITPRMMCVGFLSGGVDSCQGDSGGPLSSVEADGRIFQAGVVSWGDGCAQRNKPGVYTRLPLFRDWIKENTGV

[2] = target: T1, matriptase activation; format: cell-based; settings: 184 A1N4 intact cells; for Inhibition of matriptase activation by immunoblot, increasing concentrations: pH 6.0, mAb M24 and M69
[3] = target: T1, matriptase activation; experiment: Acid-induced matriptase activation in HaCaT keratinocytes, immunoblot; format: cell-based; settings: HaCaT cells, pH 6.0, dose-dependent
[4] = test system: prostasin activation; experiment: Acid-induced prostasin activation in HaCaT keratinocytes, immunoblot; format: cell-based, human; settings: HaCaT cells, pH 6.0, dose-dependent
[5] = target: T2, matriptase zymogen activation (Homo sapiens, UniProt Q9Y5Y6); experiment: Cell-based, ELISA-like matriptase activation assay; settings: 184 A1N4 cells, pH 6.0 buffer, 20 min, ELISA-like assay and immunoblot
T2 sequence (Q9Y5Y6 1-855): T1 sequence (Q9Y5Y6 1-855)

Row | Compound | Inhibition of matriptase activation in the cell-free system [1] | 120-kDa matriptase-HAI-1 complex (matriptase activation) by immunoblot ([2]; 5 μM compound, pH 6.0) | Inhibition of acid-induced activation of matriptase [3] | Inhibition of acid-induced activation of prostasin [4] | NaCl-mediated inhibition of acid-induced matriptase activation [5] | Inhibition of matriptase activation by immunoblot, increasing concentrations [2]
1 | Cc1nc(N2C(=O)C(O)=C(C(=O)c3cccs3)C2c2cccs2)sc1C (centres unmarked) [compound 2, 1-(4,5-dimethylthiazol-2-yl)-3-hydroxy-5-(thiophen-2-yl)-4-(thiophene-2-carbonyl)-1H-pyrrol-2(5H)-one] | suppress matriptase activation in a dose-dependent manner | no detectable 120-kDa complex | clearly inhibited | clearly inhibited | – | –
2 | Sodium chloride [NaCl] | – | – | – | – | dose-dependent manner | –
3 | Cc1nc(N2C(=O)C(O)=C(C(=O)c3cccs3)C2c2ccccc2)sc1C (centres unmarked) [compound 3, 1-(4,5-dimethylthiazol-2-yl)-3-hydroxy-5-phenyl-4-(thiophene-2-carbonyl)-1H-pyrrol-2(5H)-one] | suppress matriptase activation in a dose-dependent manner | – | same pattern of inhibition | same pattern of inhibition | – | same pattern of inhibition
4 | O=C(C1=C(O)C(=O)N(c2nccs2)C1c1cccs1)c1cccs1 (centres unmarked) [compound 1, 3-hydroxy-1-(thiazol-2-yl)-5-(thiophen-2-yl)-4-(thiophene-2-carbonyl)-1H-pyrrol-2(5H)-one] | suppress matriptase activation in a dose-dependent manner | – | same pattern of inhibition | same pattern of inhibition | – | same pattern of inhibition
5 | Cc1nc(N2C(=O)C(O)=C(C(=O)c3ccccc3)C2c2cccs2)sc1C (centres unmarked) [compound 4, 4-benzoyl-1-(4,5-dimethylthiazol-2-yl)-3-hydroxy-5-(thiophen-2-yl)-1H-pyrrol-2(5H)-one] | suppress matriptase activation in a dose-dependent manner | – | same pattern of inhibition | same pattern of inhibition | – | same pattern of inhibition
